# Biological target: T1, Chicken egg white lysozyme (CEWLZM) (Gallus gallus, UniProt P00698)
# T1 construct: gene LYZ
# Assay: SPR kinetics, CEWLZM amine-coupled on MUA gold chip, TA […], PBS pH […]°C
# Assay type: binding
# T1 sequence (P00698 19-147): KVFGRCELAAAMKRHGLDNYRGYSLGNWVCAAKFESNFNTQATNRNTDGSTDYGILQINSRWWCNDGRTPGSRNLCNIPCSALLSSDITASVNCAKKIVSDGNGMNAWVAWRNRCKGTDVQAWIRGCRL
structure (smiles),measurement,value
"O=C(OC[C@H]1O[C@@H](OC(=O)c2cc(O)c(O)c(OC(=O)c3cc(O)c(O)c(O)c3)c2)[C@H](OC(=O)c2cc(O)c(O)c(OC(=O)c3cc(O)c(O)c(O)c3)c2)[C@@H](OC(=O)c2cc(O)c(O)c(OC(=O)c3cc(O)c(O)c(O)c3)c2)[C@@H]1OC(=O)c1cc(O)c(O)c(OC(=O)c2cc(O)c(O)c(O)c2)c1)c1cc(O)c(O)c(OC(=O)c2cc(O)c(O)c(O)c2)c1 [TA, tannic acid]",Kd,41.7 µM
